From PubChem BioAssay (NCI)
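These data come from cells grown in 96-well plates and exposed to compound for 48 hours at five concentrations. GI50 = concentration required for 50% inhibition of growth. At the TGI there is no net growth.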

Legend:
Assay in all cases: NCI tumour cell line growth inhibition, 48 h
KM12 colon = tested on: KM12 colon
SK-MEL-28 melanoma = tested on: SK-MEL-28 melanoma
SW-620 colon = tested on: SW-620 colon
SF-268 CNS = tested on: SF-268 CNS
IGROV1 ovarian = tested on: IGROV1 ovarian
SK-MEL-2 melanoma = tested on: SK-MEL-2 melanoma
HT29 colon = tested on: HT29 colon
MOLT-4 leukemia = tested on: MOLT-4 leukemia
T-47D breast = tested on: T-47D breast
SNB-19 CNS = tested on: SNB-19 CNS

SMILES	GI50 (KM12 colon) [µM]	TGI (KM12 colon) [µM]	GI50 (SK-MEL-28 melanoma) [µM]	TGI (SK-MEL-28 melanoma) [µM]	GI50 (SW-620 colon) [µM]	TGI (SW-620 colon) [µM]	GI50 (SF-268 CNS) [µM]	TGI (SF-268 CNS) [µM]	GI50 (IGROV1 ovarian) [µM]	TGI (IGROV1 ovarian) [µM]	GI50 (SK-MEL-2 melanoma) [µM]	TGI (SK-MEL-2 melanoma) [µM]	GI50 (HT29 colon) [µM]	TGI (HT29 colon) [µM]	GI50 (MOLT-4 leukemia) [µM]	TGI (MOLT-4 leukemia) [µM]	GI50 (T-47D breast) [µM]	TGI (T-47D breast) [µM]	GI50 (SNB-19 CNS) [µM]	TGI (SNB-19 CNS) [µM]
CCn1c(CN2CCN(Cc3ccccc3)CC2)nc2cc(NC(=O)c3cccs3)ccc21	14.8	32	16	34.3	17.5	43.4	25.4	97.9	26.5	80.3	20	39.3	16.8	47.3	13.2	37.9	6.8	33.8	27.7	> 100
O=NNc1ccc(S(=O)(=O)c2ccccc2)cn1		> 100		> 100		> 100		> 100		> 100		> 100		> 100		> 100		> 100		> 100
O=C1/C(=C/c2ccccc2)CN(C(=O)c2cccnc2)C/C1=C\c1ccccc1	0.271	0.765	2.39	6.37	0.33	1.8	2.78	13.7	2.85	9.74	6.72	20.6	0.241	0.563	0.752	> 100	2.92	12.2	1.49	10.8
N[C@@H]1CCCC[C@H]1N.O=C([O-])C(=O)[O-].[Pt+4]	10.9	> 100	2.63	24.2	0.0468	> 83.7	4.12	> 100	1.85	35.9	5.15	52.9	0.175	> 8.25	0.137	15.6	2.21	> 100	9.85	> 100
O=C(CN1CCN(CCCOc2c(-c3ccccc3)oc3ccccc3c2=O)CC1)Nc1ccc(Cl)cc1C(=O)c1ccccc1Cl	5.73	29.9	3.66	15.2	0.336	> 100	23.2	> 100	6.16	47.3	12.5	31	3.09	> 100	3.98	66.7	6.7	33.9	8.09	> 100
O=c1nc2n(-c3ccc(Cl)cc3)c3ccc([N+](=O)[O-])cc3cc-2c(=O)[nH]1	5.06	20	24.9	61.6	6.11	> 100	16.5	64.5			55.1	> 100	20.2	43.1	13.4	> 100	18.3	43.1	17.8	83.3
O=C(Nc1cccc(Cl)c1)c1ccc(NC2=C(Cl)C(=O)N(Cc3ccccc3)C2=O)cc1	> 38.3	> 56.2	14.4	31.7	7.4	19.7	8.93	25.3	9.95	> 62.6	18.9	> 100	8.43	> 100	1.67	4.89	17.8	> 54.4	21.5	> 59.2
CCOC(=O)N1CCc2cc(OC)c(OC)c3c2c1cc1cc(OC)c(OC)cc13		67.7		> 100		81.1		> 100		> 100		> 51.8		21.6		> 100		> 60.2		> 100
O=C1CCCCCCCC/C=C\CC(c2ccco2)O1 (centres undefined)	28.5	> 100	31.1	> 100	41.5	> 100	30.8	> 100	28.1	> 100	21.6	58.4	27	99.5	20.8	65.7	13.1	57	13.1	40.3
CC1(C)N=C(N)N=C(N)N1c1ccc(OCCCCOc2ccc(S(=O)(=O)F)cc2)c(Cl)c1	0.279	11.7	0.559	28.8	0.0379	14	0.076	16.4	0.0602	21.8	2.89	22.1	0.0519	13.4	0.135	16.3	1.14	13.2	0.259	17.8
CC[C@H](Nc1nc(NCc2cnc(C)cc2C)c2ncn(C(C)C)c2n1)[C@@H](C)O	0.312	12.2	0.374	6.8	0.235	> 21.9	0.268	2.41	0.347	> 100	0.549	3.01	0.331	> 100	0.339	> 100	0.402	> 100	0.318	> 100
COC(=O)C1=C(C(=O)ON)C2C=CC1(C(Cc1ccccc1)Nc1ccccc1)O2 (centres undefined)	15.1	30	1.92	3.66			10.5	23	1.87	3.49	11.6	24.4	1.79	3.42	2.9	9.49	1.46	3.25	14.8	27.9
c1ccc2[nH]c(-c3ccc(NN=Nc4ccncc4)cc3)nc2c1	23	> 100	16.6	51.6	49.7	> 100	4.81	74.4	> 100	> 100	15.4	> 100			> 100	> 100	93	> 100	> 100	> 100
